Experiment [1] addresses thrombin-stimulated platelets (Homo sapiens, UniProt P05106+P08514). As to the kind of experiment: Fibrinogen-Binding Assay (125I-fibrinogen binding to platelets). As to conditions: for IC50: 125I-fibrinogen 0.176 μmol/liter, thrombin-stimulated platelets, read-out: Inhibition of 125I-Fibrinogen Binding to Platelets IC50. As for the experimental part: Platelets are washed free of plasma constituents by the albumin density-gradient technique of Walsh, P. N., et al., Br. J. Haematol. […] After these additions, the final platelet count in the mixture is 1×10^11 /liter. After incubation for an additional 30 minutes at 22°-25° C., bound and free ligand are separated by centrifuging 50 μl of the mixture through 300 μl of 20% sucrose at 12,000×g for 4 minutes. The platelet pellet is then separated from the rest of the mixture to determine platelet-bound radioactivity. Nonspecific binding is measured in mixtures containing an excess of unlabeled ligand. […] The IC50 is derived by plotting residual fibrinogen binding against the logarithm of the sample compound's concentration.

The target of experiment [2] is fixed activated platelets (Homo sapiens, UniProt P05106+P08514). Briefly: Platelet Aggregation Assay (fibrinogen-mediated aggregation of fixed-activated platelets). It is filed as cell-based. As to conditions: for IC50: fixed activated platelets, human fibrinogen 250 μg/ml, read-out: Inhibition of Fibrinogen Mediated Platelet Aggregation IC50; for inhibition at 25 µM: read-out: Inhibition of Fibrinogen Mediated Platelet Aggregation % inhibition at 25 μM; for inhibition at 100 µM: read-out: Inhibition of Fibrinogen Mediated Platelet Aggregation % inhibition at 100 μM. As to the method:
PLATELET AGGREGATION ASSAY
Preparation of Fixed-Activated Platelets
To the activated platelets is added paraformaldehyde to a final concentration of 0.50% and this incubated at room temperature for 30 minutes. The fixed activated platelets are then collected by centrifugation at 650×g for 15 minutes.
Platelet Aggregation Assay
The fixed activated platelets are incubated with a selected dose of the compound to be tested for platelet aggregation inhibition for one minute and aggregation initiated by addition of human fibrinogen to a final concentration of 250 μg/ml. A platelet aggregation profiler Model PAP-4 is used to record the platelet aggregation.

Broadly, the IC50 is the concentration needed to halve the response being measured.

Non-standard residues stand in square brackets, D forms with d. Residues, ends and D or L forms follow the SMILES beside them. Aoc = NCCCCCCCC(=O)O; Sar = CNCC(=O)O

Chain of thrombin-stimulated platelets (P08514 32-1039): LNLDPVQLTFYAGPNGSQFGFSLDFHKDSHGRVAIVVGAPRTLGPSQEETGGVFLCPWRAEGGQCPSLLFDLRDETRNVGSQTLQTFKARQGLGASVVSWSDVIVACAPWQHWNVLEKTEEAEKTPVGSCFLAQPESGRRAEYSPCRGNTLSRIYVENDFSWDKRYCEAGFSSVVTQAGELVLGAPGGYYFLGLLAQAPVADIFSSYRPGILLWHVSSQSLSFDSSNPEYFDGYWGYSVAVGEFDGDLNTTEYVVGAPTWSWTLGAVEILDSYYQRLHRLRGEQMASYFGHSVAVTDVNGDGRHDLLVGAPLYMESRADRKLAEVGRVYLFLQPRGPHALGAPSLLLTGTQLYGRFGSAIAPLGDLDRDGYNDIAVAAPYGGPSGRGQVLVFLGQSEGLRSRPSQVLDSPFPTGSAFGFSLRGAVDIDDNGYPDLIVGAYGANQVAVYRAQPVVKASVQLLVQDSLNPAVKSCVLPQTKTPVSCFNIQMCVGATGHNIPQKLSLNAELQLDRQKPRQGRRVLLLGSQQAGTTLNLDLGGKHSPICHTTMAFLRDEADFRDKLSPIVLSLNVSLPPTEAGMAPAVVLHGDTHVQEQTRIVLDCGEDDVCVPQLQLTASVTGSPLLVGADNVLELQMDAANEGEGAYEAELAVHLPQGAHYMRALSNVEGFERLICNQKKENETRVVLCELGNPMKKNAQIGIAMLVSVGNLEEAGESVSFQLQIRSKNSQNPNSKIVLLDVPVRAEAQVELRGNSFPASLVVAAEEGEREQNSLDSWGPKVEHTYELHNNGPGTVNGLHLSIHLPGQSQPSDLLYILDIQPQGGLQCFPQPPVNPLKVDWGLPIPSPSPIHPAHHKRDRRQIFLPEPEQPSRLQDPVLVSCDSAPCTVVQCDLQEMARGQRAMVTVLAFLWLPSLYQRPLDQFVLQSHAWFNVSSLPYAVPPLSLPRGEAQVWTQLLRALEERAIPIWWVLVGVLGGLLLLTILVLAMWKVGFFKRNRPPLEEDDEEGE
Chain of thrombin-stimulated platelets (P05106 27-788): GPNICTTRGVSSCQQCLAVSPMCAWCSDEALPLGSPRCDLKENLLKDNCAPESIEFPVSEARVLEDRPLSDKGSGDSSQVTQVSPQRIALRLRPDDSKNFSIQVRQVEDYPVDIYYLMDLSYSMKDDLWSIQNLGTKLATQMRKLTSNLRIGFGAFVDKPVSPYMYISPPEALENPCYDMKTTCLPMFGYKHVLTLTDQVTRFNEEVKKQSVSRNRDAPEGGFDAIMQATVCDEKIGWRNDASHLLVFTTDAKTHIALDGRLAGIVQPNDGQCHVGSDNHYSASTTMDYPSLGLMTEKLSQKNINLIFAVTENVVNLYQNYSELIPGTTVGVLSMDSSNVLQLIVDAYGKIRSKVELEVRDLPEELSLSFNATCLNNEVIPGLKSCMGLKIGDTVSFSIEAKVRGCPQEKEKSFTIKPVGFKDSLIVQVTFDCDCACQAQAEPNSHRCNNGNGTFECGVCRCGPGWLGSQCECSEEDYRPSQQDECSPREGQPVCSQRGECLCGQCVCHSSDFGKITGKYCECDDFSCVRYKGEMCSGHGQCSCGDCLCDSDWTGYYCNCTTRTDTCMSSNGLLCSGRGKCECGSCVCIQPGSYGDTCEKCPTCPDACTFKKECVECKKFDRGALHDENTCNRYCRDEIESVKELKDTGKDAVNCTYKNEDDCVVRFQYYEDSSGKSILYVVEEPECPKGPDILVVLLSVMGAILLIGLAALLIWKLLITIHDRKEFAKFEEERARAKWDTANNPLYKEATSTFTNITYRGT
Chain of fixed activated platelets (P08514 32-1039): as the sequence (P08514 32-1039) above
Chain of fixed activated platelets (P05106 27-788): as the sequence (P05106 27-788) above

As for `CN(CC(=O)N[C@@H](CC(=O)O)C(=O)N[C@@H](CCCCN)C(=O)O)C(=O)CCCCCNC(=N)N` [6-Guanidinohexanoyl-sarcosyl-L-aspartyl-L-lysine], the concentration for half-maximal inhibition (IC50) in experiment [1] stood at 0.34 µM. In experiment [2], the 50% inhibitory concentration (IC50) is 4.1 µM and the inhibition at 25 µM was 86%.
The matching figures for `CCN(CC(=O)N[C@@H](CC(=O)O)C(=O)N[C@H](C(=O)O)C(C)C)C(=O)CCCCCNC(=N)N` [6-Guanidinohexanoyl-N-ethylglycine-L-aspartyl-L-valine]: 0.12 µM, 0.38 µM and 96%.
As for `CC(C)CCOC(=O)[C@H](CCCNC(=N)N)NC(=O)[C@H](CC(=O)O)NC(=O)CCCCCCCCNC(=N)N` [9-Guanidinononanoyl-L-aspartyl-L-arginine-3-methylbutyl ester], the 50% inhibitory concentration (IC50) in experiment [1] was 0.15 µM. In experiment [2], the half-maximal inhibitory concentration (IC50) amounted to 1.7 µM and the inhibition at 25 µM was 97%.
The matching figures for `CC(C)CNC(=O)[C@H](CCCNC(=N)N)NC(=O)[C@H](CC(=O)O)NC(=O)CCCCCCCCNC(=N)N` [9-Guanidinononanoyl-L-aspartyl-L-arginine isobutyl amide]: 3 µM, 2.2 µM and 89%.
Take `CC[C@H](C)[C@H](NC(=O)[C@H](CCCNC(=N)N)NC(=O)[C@H](CC(=O)O)NC(=O)CCCCCCCCNC(=N)N)C(=O)O` [9-Guanidinononanoyl-L-aspartyl-arginyl-isoleucine]: the IC50 in experiment [1] amounted to 1.2 µM; in experiment [2] it was 2.4 µM. Besides, in experiment [2], the inhibition at 25 µM is 93%.
Taken in the same sequence, the figures for `CC(C)[C@H](NC(=O)[C@H](CC(=O)O)NC(=O)CNC(=O)CCCCn1ccnc1)C(=O)O` [5-(Imidazol-1-yl)-valeroylglycyl-L-aspartyl-L-valine] were 1.25 µM, 20.2 µM and 58%.
The matching figures for `CC(C)[C@H](NC(=O)[C@H](CC(=O)O)NC(=O)CCCCCCCCCNC(=N)N)C(=O)O` [10-Guanidinodecanoyl-L-aspartyl-L-valine]: 2.5 µM, 10.3 µM and 77%.
The matching figures for `CC(C)[C@H](NC(=O)[C@H](CC(=O)O)NC(=O)CN(C)C(=O)CCCCCCCN)C(=O)O` [8-Aminooctanoyl-sarcosyl-L-aspartyl-L-valine] (H-[Aoc][Sar]DV-OH): 0.23 µM, 2.6 µM and 96%.
As for `CC[C@H](C)[C@H](NC(=O)[C@H](CC(=O)O)NC(=O)CCCCCCCCNC(=N)N)C(=O)NCCCCNC(=N)N` [9-Guanidinononanoyl-L-aspartyl-isoleucine-4-guanidinobutyl amide], the 50% inhibitory concentration (IC50) in experiment [1] was 0.24 µM. For the same compound, in experiment [2], the IC50 is 5.7 µM and the inhibition at 25 µM is 95%.
The matching figures for `CC(C)[C@H](NC(=O)[C@H](CC(=O)O)NC(=O)CN(Cc1ccccc1)C(=O)CCCCCNC(=N)N)C(=O)O` [6-Guanidinohexanoyl-N-benzylglycyl-L-aspartyl-L-valine]: 0.84 µM, 5.7 µM and 85%.
As to `N=C(N)NCCC[C@H](N)C(=O)NCC(=O)N[C@@H](CC(=O)O)C(=O)OCc1ccccc1` [L-arginylglycyl-L-aspartic acid α-benzyl ester], in experiment [1], the IC50 amounted to 25 µM. In addition, in experiment [2], the IC50 amounted to 14 µM and the inhibition at 100 µM is 96%.
Consider `CCN(CC(=O)N[C@@H](CC(=O)O)C(=O)N[C@@H](CCCNC(=N)N)C(=O)O)C(=O)CCCCCNC(=N)N` [6-Guanidinohexanoyl-N-ethylglycyl-L-aspartyl-L-arginine], for which the 50% inhibitory concentration (IC50) came out at 0.24 µM in experiment [1] and 1.4 µM in experiment [2]. In experiment [2], the inhibition at 25 µM was found to be 97%.
Take `CC(C)[C@H](NC(=O)[C@H](C)NC(=O)CNC(=O)[C@@H](N)CCCNC(=N)N)C(=O)O` [L-arginylglycyl-L-alanyl-L-valine] (H-RGAV-OH): the inhibition at 50 µg/mL in experiment [1] (read-out: Inhibition of 125I-Fibrinogen Binding to Platelets: Inhibited <50% at 50 μg/ml) was below 50%. Besides, in experiment [2], the IC50 was above 100 µM and the inhibition at 100 µM came to 17.5%.

For the origin of these results see patent publication US5332726A, “Antithrombotic peptides and pseudopeptides” (Rhone-Poulenc Rorer Pharmaceuticals Inc., priority 1992, dated 1994).
